Among the data in US5789434A, “Derivatives of substituted 4-biarylbutyric acid as matrix metalloprotease inhibitors” (priority 1995, dated 1998) are inhibition and IC50 values, retold here.

Holding throughout (format): biochemical
One test concerns the target T1, MMP-9 (Homo sapiens, UniProt P14780).
T1 construct: from tissue; host or cells: human polymorphonuclear leukocytes (PMN) from whole blood (New York Blood Center), PMA-stimulated supernatant
The test is described as follows: Automated MMP Profiling Assay, MMP-9 fluorogenic. To be noted: for IC50: 96-well automated, P218.

The next test concerns the target T2, MMP-3 (Homo sapiens, UniProt P08254).
T2 construct: Truncated Prostromelysin-257 was expressed in a soluble form in E.coli; made in house; host or cells: E. coli
The test is described as follows: Automated MMP Profiling Assay, MMP-3 fluorogenic. To be noted: for IC50: 96-well automated, P218. The source says: This assay with each invention compound was run with the three enzymes MMP-3, MMP-9 and MMP-2 in parallel as adapted for a 96-well microtitre plate using a Hamilton A® workstation.

The next test concerns the target T3, MMP-2 (Homo sapiens, UniProt P08253).
T3 sequence (P08253 110-660): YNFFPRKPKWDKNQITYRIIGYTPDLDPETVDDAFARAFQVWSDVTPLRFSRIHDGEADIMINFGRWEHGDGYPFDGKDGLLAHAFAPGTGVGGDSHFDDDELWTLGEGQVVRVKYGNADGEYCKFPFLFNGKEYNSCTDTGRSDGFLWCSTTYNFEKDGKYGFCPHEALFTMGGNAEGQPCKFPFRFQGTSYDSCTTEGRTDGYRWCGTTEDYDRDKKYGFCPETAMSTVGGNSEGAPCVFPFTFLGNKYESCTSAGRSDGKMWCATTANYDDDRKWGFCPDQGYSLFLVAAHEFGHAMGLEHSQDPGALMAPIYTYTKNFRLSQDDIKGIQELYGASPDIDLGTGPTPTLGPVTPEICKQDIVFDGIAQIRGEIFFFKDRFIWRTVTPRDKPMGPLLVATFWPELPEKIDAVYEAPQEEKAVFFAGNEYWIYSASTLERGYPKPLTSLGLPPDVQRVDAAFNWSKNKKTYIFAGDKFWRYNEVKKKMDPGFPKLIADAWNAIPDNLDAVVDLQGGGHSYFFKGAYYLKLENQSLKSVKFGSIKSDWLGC
The experiment in a line: Automated MMP Profiling Assay, MMP-2 fluorogenic.

Setting [1] is: 96-well automated, P218, read-out: MMP-2 Fluorogenic IC50 (profiling).

Read-outs that look alike come from different tables or passages of the source.

T1 sequence (P14780 107-707 limits assumed): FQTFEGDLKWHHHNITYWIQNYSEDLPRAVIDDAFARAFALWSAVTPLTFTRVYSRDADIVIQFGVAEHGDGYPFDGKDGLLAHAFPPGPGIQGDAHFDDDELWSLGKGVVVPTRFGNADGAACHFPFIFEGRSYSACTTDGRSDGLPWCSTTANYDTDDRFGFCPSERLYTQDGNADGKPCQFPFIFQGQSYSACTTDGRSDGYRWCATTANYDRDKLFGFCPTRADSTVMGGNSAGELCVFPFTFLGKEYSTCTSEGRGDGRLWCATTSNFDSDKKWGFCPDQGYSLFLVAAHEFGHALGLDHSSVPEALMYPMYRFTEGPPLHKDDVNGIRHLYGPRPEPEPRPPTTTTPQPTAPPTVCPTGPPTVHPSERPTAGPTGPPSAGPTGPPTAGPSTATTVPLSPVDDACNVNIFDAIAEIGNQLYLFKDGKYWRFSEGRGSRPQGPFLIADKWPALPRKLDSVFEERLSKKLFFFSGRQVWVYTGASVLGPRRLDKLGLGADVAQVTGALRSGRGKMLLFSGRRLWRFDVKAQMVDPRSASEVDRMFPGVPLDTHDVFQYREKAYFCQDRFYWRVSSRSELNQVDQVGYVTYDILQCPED
T2 sequence (P08254 100-274 limits assumed): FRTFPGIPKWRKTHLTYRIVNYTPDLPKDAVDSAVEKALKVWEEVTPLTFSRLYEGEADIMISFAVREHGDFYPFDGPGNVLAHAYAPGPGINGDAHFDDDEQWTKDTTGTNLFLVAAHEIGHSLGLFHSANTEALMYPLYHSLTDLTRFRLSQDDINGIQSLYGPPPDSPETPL

By inhibition is commonly meant the drop in the measured response relative to a control, in per cent. A low value points to a weak effect. Broadly, the IC50 is the concentration that gives 50% inhibition. The molecule `CC(C)(C)CC(=O)Nc1ccc(-c2ccc(C(=O)CC(CCc3ccccc3)C(=O)O)cc2)cc1` (stereo not drawn) [Example 141, [1,1'-Biphenyl]-4-butanoic acid, 4'-[(3,3-dimethyl-1-oxobutyl)amino]-γ-oxo-α-(2-phenylethyl)-] returned an inhibition at 5 µM against MMP-9 of 0%. Moreover, the results for the IC50 on MMP-3 and at MMP-2 (setting [1]) were less than 5000 nM and 1170 nM, respectively.

For the molecule `CCCCCOc1ccc(-c2ccc(C(=O)CC(CCc3cccc(C(=O)N(CC)CC)c3)C(=O)O)cc2)cc1` (stereo not drawn) [Example 164, [1,1'-Biphenyl]-4-butanoic acid, α-[2-[3-[(diethylamino)carbonyl]phenyl]ethyl]-γ-oxo-4'-(pentyloxy)-], the IC50 at MMP-9 was determined as 82 nM; against MMP-3, 30 nM; at MMP-2 (setting [1]), 3.9 nM.

With `O=C(CC(CCN1C(=O)c2ccccc2C1=O)C(=O)O)c1ccc(-c2ccc(OCc3ccccc3)cc2)cc1` (stereo not drawn) [Example 271, 2H-Isoindole-2-butanoic acid, 1,3-dihydro-1,3-dioxo-α-[2-oxo-2-[4'-(phenylmethoxy)[1,1'-biphenyl]-4-yl]ethyl]-], the IC50 was determined as 7.9 nM against MMP-9, 5.2 nM against MMP-3 and 1.4 nM at MMP-2 (setting [1]).

Take `O=C(OC[C@@H]1CC[C@H](C(=O)c2ccc(-c3ccc(Cl)cc3)cc2)[C@H]1C(=O)O)c1ccccc1` (relative stereo) [Example 367]: the IC50 on MMP-9 was determined as 38 nM; against MMP-3 it was 44 nM; at MMP-2 (setting [1]), 37 nM.

On to `CC(=O)Nc1ccc(-c2ccc(C(=O)CC(CCc3ccccc3)C(=O)O)cc2)cc1` (stereo not drawn) [Example 139, [1,1'-Biphenyl]-4-butanoic acid, 4'-(acetylamino)-γ-oxo-α-(2-phenylethyl)-], for which the half-inhibitory concentration (IC50) on MMP-9 was 5000 nM; on MMP-3 it was 5000 nM; on MMP-2 (setting [1]), 323 nM.

On to `O=C(c1ccc(-c2ccc(Cl)cc2)cc1)[C@H]1CCN(C(=O)OCc2ccccc2)[C@@H]1C(=O)O` [Example 166, 1,2-Pyrrolidinedicarboxylic acid, 3-[(4'-chloro[1,1'-biphenyl]-4-yl)carbonyl]-, 1-(phenylmethyl) ester, (2S-trans)-], for which the IC50 against MMP-9 came to 381 nM; on MMP-3, 103 nM; against MMP-2, 35 nM.

Regarding `O=C(O)[C@@H]1[C@@H](CN2C(=O)c3ccccc3C2=O)OC[C@H]1C(=O)c1ccc(-c2ccc(Cl)cc2)cc1` (relative stereo) [Example 403, 3-Furancarboxylic acid, 4-[(4'-chloro[1,1'-biphenyl]-4-yl)carbonyl]-2-[(1,3-dihydro-1,3-dioxo-2H-isoindol-2-yl)methyl]tetrahydro-, (2α,3β,4α)-], the IC50 against MMP-9 turned out to be 5.7 nM; at MMP-3 it was 17 nM; on MMP-2 (setting [1]), 6.4 nM.

Regarding `O=C(CC(CCc1cccc(I)c1)C(=O)O)c1ccc(-c2ccc(Cl)cc2)cc1` (stereo not drawn) [Example 127, [1,1'-Biphenyl]-4-butanoic acid, 4'-chloro-α[2-(3-iodophenyl)ethyl]-γ-oxo-], the concentration for half-maximal inhibition (IC50) at MMP-9 amounted to 1220 nM; at MMP-3, 605 nM; at MMP-2 (setting [1]) it was 40 nM.

Regarding `O=C(CC(CCCc1ccccc1)C(=O)O)c1ccc(-c2ccc(Br)cc2)cc1` (stereo not drawn) [Example 134, [1,1'-Biphenyl]-4-butanoic acid, 4'-bromo-γ-oxo-α-(3-phenylpropyl)-], the IC50 on MMP-9 is 358 nM; at MMP-3, 304 nM; on MMP-2 (setting [1]), 63 nM.

Consider `CC(=O)O[C@@H]1C[C@@H](C(=O)c2ccc(-c3ccc(Cl)cc3)cc2)[C@H]1C(=O)O` (relative stereo) [Example 394, Cyclobutanecarboxylic acid, 2-(acetyloxy)-4-[(4'-chloro[1,1'-biphenyl]-4-yl)carbonyl]-, (1α,2β,4α)-], for which the inhibition at 5 µM against MMP-9 is 15%; against MMP-3 (at 5 μM), 26%. Further, the IC50 on MMP-2 (setting [1]) is 2000 nM.

Regarding `COC(=O)c1cccc(SCC(CC(=O)c2ccc(-c3ccc(Cl)cc3)cc2)C(=O)O)c1` (stereo not drawn) [Example 432, [1,1'-Biphenyl]-4-butanoic acid, 4'-chloro-α-[[[3-(methoxycarbonyl)phenyl]thio]methyl]-γ-oxo-], the IC50 was more than 1250 nM against MMP-9, 1600 nM against MMP-3 and 236 nM at MMP-2 (setting [1]).

Consider `CCCSC[C@@H]1CC[C@H](C(=O)c2ccc(-c3ccc(Cl)cc3)cc2)[C@H]1C(=O)O` (relative stereo) [Example 374, Cyclopentanecarboxylic acid, 2-[(4'-chloro[1,1'-biphenyl]-4-yl)carbonyl]-5-[(propylthio)methyl]-, (1α,2β,5β)-], for which the results for the IC50 against MMP-9, against MMP-3 and on MMP-2 (setting [1]) were 271 nM, 54 nM and 34 nM, respectively.

In the case of `O=C(O)[C@H]1[C@H](CN2C(=O)c3cccc([N+](=O)[O-])c3C2=O)CC[C@@H]1C(=O)c1ccc(-c2ccc(Cl)cc2)cc1` (relative stereo) [Example 385, Cyclopentanecarboxylic acid, 2-[(4'-chloro[1,1'-biphenyl]-4-yl)carbonyl]-5-[(1,3-dihydro-4-nitro-1,3-dioxo-2H-isoindol-2-yl)methyl]-, (1α,2β,5β)-], the IC50 worked out at 1.12 nM on MMP-9, 4.22 nM against MMP-3 and 4.26 nM on MMP-2 (setting [1]).

Regarding `COC(=O)c1ccccc1C(=O)OC[C@@H]1CC[C@H](C(=O)c2ccc(-c3ccc(Cl)cc3)cc2)[C@H]1C(=O)O` (relative stereo) [Example 368], the IC50 is 30 nM against MMP-9, 36 nM against MMP-3 and 31 nM on MMP-2 (setting [1]).

On to `Cc1ccc(COc2ccc(-c3ccc(C(=O)CC(CCCc4ccccc4)C(=O)O)cc3)cc2)cc1` (stereo not drawn) [Example 103, [1,1'-Biphenyl]-4-butanoic acid, 4'-[(4-methylphenyl)methoxy]-γ-oxo-α-(3-phenylpropyl)-], for which testing at 5 µM at MMP-9 gave an inhibition of 28%. Besides, the results for the IC50 against MMP-3 and on MMP-2 (setting [1]) were 57 nM and 30 nM, respectively.

Regarding `O=C(CC(CCCc1ccccc1)C(=O)O)c1ccc(-c2ccc(OCc3ccccn3)cc2)cc1` (stereo not drawn) [Example 110, [1,1'-Biphenyl]-4-butanoic acid, γ-oxo-α-(3-phenylpropyl)-4'-(2-pyridinylmethoxy)-], testing at 5 µM against MMP-9 gave an inhibition of 26%. For the same molecule, the results for the IC50 at MMP-3 and on MMP-2 (setting [1]) were 37 nM and 38 nM, respectively.

`CC(C)(C)CC(=O)N1CC[C@H](C(=O)c2ccc(-c3ccc(Cl)cc3)cc2)[C@H]1C(=O)O` [Example 171, L-Proline, 3-[(4'-chloro[1,1'-biphenyl]-4-yl)carbonyl]-1-(3,3-dimethyl-1-oxobutyl)-, trans-]: the figures for the IC50 at MMP-9, on MMP-3 and on MMP-2 (setting [1]) were 3520 nM, 663 nM and 452 nM, respectively.

Turning to `Cc1ccc(C(=O)OC[C@@H]2CC[C@H](C(=O)c3ccc(-c4ccc(Cl)cc4)cc3)[C@H]2C(=O)O)cc1` (relative stereo) [Example 380, Benzoic acid, 4-methyl-, [2-carboxy-3-[(4'-chloro[1,1'-biphenyl]-4-yl)carbonyl]cyclopentyl]methyl ester, (1α,2β,3α)-], the IC50 is 40 nM against MMP-9, 46 nM on MMP-3 and 69 nM on MMP-2 (setting [1]).

On to `O=C(CC(CCN1C(=O)c2cc3ccccc3cc2C1=O)C(=O)O)c1ccc(-c2ccc(Cl)cc2)cc1` (stereo not drawn) [Example 409, 2H-Benz[.function.]isoindole-2-butanoic acid, α-[2-(4'-chloro[1,1'-biphenyl]-4-yl)-2-oxoethyl]-1,3-dihydro-1,3-dioxo-], for which the IC50 was 1.9 nM on MMP-9, 12.3 nM on MMP-3 and 30 nM on MMP-2 (setting [1]).

As for `O=C(CC(CCN1C(=O)c2ccccc2C1=O)C(=O)O)c1ccc(-c2ccc(Br)cc2)cc1` (stereo not drawn) [Example 270], the figures for the IC50 at MMP-9, on MMP-3 and on MMP-2 (setting [1]) were 1.6 nM, 6 nM and 1.4 nM, respectively.

The molecule `O=C(O)[C@H]1[C@@H](Sc2ccccc2)CC[C@@H]1C(=O)c1ccc(-c2ccc(Cl)cc2)cc1` (relative stereo) [Example 313, Cyclopentanecarboxylic acid, 2-[(4'-chloro[1,1'-biphenyl]-4-yl)carbonyl]-5-(phenylthio)-, (1α,2β,5α)-] came in with an inhibition at 5 µM against MMP-9 of 20%. The results for the IC50 on MMP-3 and on MMP-2 (setting [1]) were 3330 nM and 2780 nM, respectively.

Take `CCN(CC)C(=O)c1cccc(CCC(CC(=O)c2ccc(-c3ccc(Cl)cc3)cc2)C(=O)O)c1` (stereo not drawn) [Example 144, 4-[4-(4-chlorophenyl)phenyl]-4-oxo-2-[2-(3-N,N-diethylcarbamoyl)phenyl]butanoic acid]: the IC50 is 29 nM on MMP-9, 15 nM at MMP-3 and 3.4 nM at MMP-2 (setting [1]).

Consider `CCCCCOc1ccc(-c2ccc(C(=O)[C@H]3CC[C@H](Sc4ccccc4)[C@@H]3C(=O)O)cc2)cc1` (relative stereo) [Example 317, Cyclopentanecarboxylic acid, 2-[[4'-(pentyloxy)[1,1'-biphenyl]-4-yl]carbonyl]-5-(phenylthio)-, (1α,2β,5α)-], for which the results for the IC50 against MMP-9, at MMP-3 and at MMP-2 (setting [1]) were 808 nM, 75 nM and 37 nM, respectively.
